Measurements reported in patent US20090123501A1, “INHIBITION OF THE SH2-DOMAIN CONTAINING PROTEIN TYR-PHOSPHATASE, SHP-1, TO ENHANCE VACCINES” (Baylor College of Medicine, priority 2007, published 2009).

Legend:
endogenous SHP-1 protein = experiment: Knock-down of endogenous SHP-1 protein in D2SC/1 cells, western blot with densitometry; format: cell-based, murine; details: D2SC/1 cells, 40,000 viral particles/cell
Procedure: The high titer adenoviral preparation of SHP-1 specific Ad-shRNA#1149 (referred to from this point on as Ad5-SHP-1-shRNA), produced in the Viral Vector Core Laboratory at Baylor College of Medicine, was tested for its ability to knock-down endogenous SHP-1 protein in D2SC/1 cells, a murine dendritic-like cell line. […] A titration of Ad5-SHP-1 shRNA viral particles was performed and SHP-1 protein expression was determined by western blot (FIG. 3). […] This dose was chosen for subsequent studies using mouse bone marrow derived dendritic cells (BMDCs).
FIG. 3 describes the knock-down of endogenous SHP-1 using high titer Ad5-SHP-1 shRNA. SHP-1 protein expression was measured in D2SC/1 cells following infection with Ad5-SHP-1 at varying doses as shown. Protein levels were analyzed by western blot with a SHP-1 specific antibody. As controls, SHP-1 expression is shown for uninfected cells and those infected with the Ad5-scrambled shRNA. The blot was also probed with a calnexin specific antibody as a loading control. Densitometry analysis of the western is shown below as a percentage of SHP-1 expression level relative to cells infected with Ad5-scrambled shRNA.

D2SC/1 cells = experiment: Cell death of D2SC/1 cells after adenoviral infection; format: cell-based, murine; details: D2SC/1 cells, 40,000 viral particles/cell
BMDCs = experiment: DC survival by annexin V and propidium iodide flow cytometry; format: cell-based, C57BL/6 mice; details: CD11c purified BMDCs
Procedure: Primary bone marrow-derived dendritic cells (BMDCs) were prepared from wild type mice in the following manner: Bone marrow cells were flushed from the femurs and tibias of C57BL/6 mice and cultured for 6 days in RPMI media supplemented with 10% FBS, 10 ng/mL IL-4 and 10 ng/mL GMCSF along with antibiotics. On day 6, dendritic cells (DCs) were either purified by magnetic bead assisted cell sorting (MACS; Miltenyi Biotec, Auburn, Calif.) prior to adenoviral transduction, or used as unpurified bulk DCs that were then transduced with adenovirus.
BMDCs were prepared as described above and purified by CD11c (a marker for DC) MACS. Purified DCs were transduced with either Ad5-SHP1-shRNA or Ad5-scrambled-shRNA or left untreated and the virus was washed away following a two hour exposure. Cell survival was determined at 24 hours, 48 hours and 72 hours after infection by annexin V and propidium iodide (PI) staining and analyzed by flow cytometry. Annexin V binds to phosphatidylserine and is an early marker of apoptosis. PI is a DNA intercalating dye that can only enter cells when their membrane is integrity is disrupted and is a marker of cells late in the apoptotic process. Viral infection of DCs causes cells to undergo apoptosis where approximately 50% were dead or dying within the first 24 hours and 85% were dead or dying by 72 hours post-infection (FIG. 8 Ad5-scrambled-shRNA). […]

B16 tumors = experiment: DC vaccination of mice bearing ectopic B16 melanoma tumors; format: in vivo, C57BL/6 mice
Procedure: The B16 melanoma, which is both aggressive and poorly immunogenic, expresses tyrosinase related protein-2 (Trp-2) of which peptide, […] (SEQ ID NO:13), is recognized by CD8^+ T cells in the context of H-2K^b. B16 represents a much more difficult tumor to treat than TRAMP and is considered the “gold standard” for ectopic tumor models in the C57BL/6 background. BMDCs were prepared as described above, pulsed with the Trp-2 and then transduced with either Ad5-SHP-1 shRNA or the control Ad5-scrambled-shRNA virus at 40,000 viral particles/cell. 6-8 week C57BL/6 mice, bearing B16 tumors (5×10^5 cells injected s.c. on the dorsal flank three days prior to vaccination), were given a single i.p. vaccination with 2×10^6 treated DCs or left untreated. Tumors were measured every 2-4 days until termination of the experiment and tumor volume was calculated as described above. […] To determine if this difference was statistically significant, ANOVA and Tukey-Kramer HSD multiple comparisons test were performed.
BMDCs were prepared as described above, pulsed with the Trp-2 and then transduced with either Ad5-SHP-1 shRNA or the control Ad5-scrambled-shRNA virus at 40,000 viral particles/cell. […] Tumors were measured every 2-4 days until termination of the experiment and tumor volume was calculated as described above. […]

Question: With “CACCGGAGCATGACACAGCAGAATACGAATATTCTGCTGTGTCATGCTCC (chemistry not given here) [Ad5-SHP-1-shRNA]” as the sequence, how does the “decrease in endogenous SHP-1 protein” value (endogenous SHP-1 protein) read?
Answer: 95%

Question: What about the cell death (D2SC/1 cells) of the same sequence?
Answer: minimal cell death

Question: What about the “cells dead or dying” value (BMDCs; by 72 hours post-infection) of the same sequence?
Answer: 55%

Question: And the “cells dead or dying” value (BMDCs; within the first 24 hours post-infection)?
Answer: 35%

Question: What about the “B16 mean tumor volume (growth curves)” value (B16 tumors; Trp-2 pulsed DCs, 40,000 viral particles/cell, single i.p. 2×10^6 DCs, beginning at day 18) of the same sequence?
Answer: markedly smaller mean tumor volumes

Question: What about the “B16 mean tumor volume (ANOVA)” value (B16 tumors; Trp-2 pulsed DCs, compared with either control group) of the same sequence?
Answer: significantly lower mean tumor volume
